Reference: US12492179B2, “Substituted ethylamine fused heterocyclic mescaline derivatives” (Enveric Biosciences Canada Inc., priority 2022, dated 2025)

Key:
D2 receptor = target: T1, D2 receptor (Homo sapiens, UniProt P14416); test: Eurofins Cerep competition binding assay at D2 receptor; details: test ligand 10 μM; [3H]methylspiperone 0.3 nM; recombinant receptor, HEK-293 membranes
T1 construct: host or cells: HEK-293

alpha2A receptor = target: T2, alpha2A receptor (Homo sapiens, UniProt P08913); test: Eurofins Cerep competition binding assay at alpha2A receptor; details: test ligand 10 μM; [3H]RX 821002 1 nM; recombinant receptor, CHO membranes; read-out: α-2A, percent of control-specific binding
T2 construct: host or cells: CHO
T2 sequence (P08913 1-465): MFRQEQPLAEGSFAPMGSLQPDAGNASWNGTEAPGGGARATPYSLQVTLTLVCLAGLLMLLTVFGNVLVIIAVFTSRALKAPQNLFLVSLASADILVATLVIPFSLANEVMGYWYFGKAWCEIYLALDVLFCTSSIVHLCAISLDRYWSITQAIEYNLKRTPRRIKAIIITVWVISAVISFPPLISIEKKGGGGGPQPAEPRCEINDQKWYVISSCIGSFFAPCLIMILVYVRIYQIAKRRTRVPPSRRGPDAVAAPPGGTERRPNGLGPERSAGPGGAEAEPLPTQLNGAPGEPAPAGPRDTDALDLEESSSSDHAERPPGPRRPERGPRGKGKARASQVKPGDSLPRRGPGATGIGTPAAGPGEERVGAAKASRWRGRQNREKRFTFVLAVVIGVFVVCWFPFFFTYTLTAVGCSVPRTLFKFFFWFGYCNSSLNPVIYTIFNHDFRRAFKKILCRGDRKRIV

MT1 receptor = target: T3, MT1 receptor (Homo sapiens, UniProt P48039); test: Eurofins Cerep competition binding assay at MT1 receptor; details: test ligand 10 μM; [125I]2-iodomelatonin 0.01 nM; recombinant receptor, CHO membranes
T3 construct: host or cells: CHO
T3 sequence (P48039 whole entry): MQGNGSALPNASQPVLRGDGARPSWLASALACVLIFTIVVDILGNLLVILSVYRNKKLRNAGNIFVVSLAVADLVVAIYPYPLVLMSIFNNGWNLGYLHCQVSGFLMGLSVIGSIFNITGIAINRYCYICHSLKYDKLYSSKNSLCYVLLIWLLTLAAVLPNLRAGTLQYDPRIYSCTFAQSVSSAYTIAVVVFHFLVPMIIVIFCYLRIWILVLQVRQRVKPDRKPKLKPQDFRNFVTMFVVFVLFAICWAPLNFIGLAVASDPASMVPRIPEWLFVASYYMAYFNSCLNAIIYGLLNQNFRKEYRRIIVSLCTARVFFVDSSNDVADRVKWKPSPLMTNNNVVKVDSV

D3 receptor = target: T4, D3 receptor (Homo sapiens, UniProt P35462); test: Eurofins Cerep competition binding assay at D3 receptor; details: test ligand 10 μM; [3H]methylspiperone […]; recombinant receptor, CHO membranes
T4 construct: host or cells: CHO
T4 sequence (P35462 whole entry): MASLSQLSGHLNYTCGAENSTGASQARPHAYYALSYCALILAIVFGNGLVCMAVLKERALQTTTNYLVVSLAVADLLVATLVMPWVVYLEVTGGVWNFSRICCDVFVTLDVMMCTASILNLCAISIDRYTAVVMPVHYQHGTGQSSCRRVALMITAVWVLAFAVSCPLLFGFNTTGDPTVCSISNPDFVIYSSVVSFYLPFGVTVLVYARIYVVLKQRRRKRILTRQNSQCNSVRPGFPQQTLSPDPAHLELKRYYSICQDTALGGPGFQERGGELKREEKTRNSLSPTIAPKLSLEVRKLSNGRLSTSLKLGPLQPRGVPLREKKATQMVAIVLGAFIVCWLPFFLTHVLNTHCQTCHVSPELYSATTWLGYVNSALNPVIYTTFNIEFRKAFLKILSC

5-HT2C receptor = target: T5, 5-HT2C receptor (Homo sapiens, UniProt P28335); test: Eurofins Cerep competition binding assay at 5-HT2C receptor; details: test ligand 10 μM; [125I](±)DOI 0.1 nM; recombinant receptor, HEK-293 membranes
T5 construct: host or cells: HEK-293
T5 sequence (P28335 33-458): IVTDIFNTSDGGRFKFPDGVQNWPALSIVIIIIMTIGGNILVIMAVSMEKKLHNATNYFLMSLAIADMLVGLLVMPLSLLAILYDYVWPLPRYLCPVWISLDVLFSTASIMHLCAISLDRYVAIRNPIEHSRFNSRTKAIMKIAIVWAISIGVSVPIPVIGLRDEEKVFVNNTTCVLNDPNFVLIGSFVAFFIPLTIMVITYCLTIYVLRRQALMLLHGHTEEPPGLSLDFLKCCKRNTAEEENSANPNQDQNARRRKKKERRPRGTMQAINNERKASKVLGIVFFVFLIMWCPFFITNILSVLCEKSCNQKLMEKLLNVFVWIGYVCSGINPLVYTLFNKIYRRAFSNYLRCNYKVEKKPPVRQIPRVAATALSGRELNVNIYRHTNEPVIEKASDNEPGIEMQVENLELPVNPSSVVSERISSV

[1] = target: T6, serotonin transporter (SERT) (Homo sapiens, UniProt P31645); format: binding
T6 construct: host or cells: CHO
T6 sequence (P31645 whole entry): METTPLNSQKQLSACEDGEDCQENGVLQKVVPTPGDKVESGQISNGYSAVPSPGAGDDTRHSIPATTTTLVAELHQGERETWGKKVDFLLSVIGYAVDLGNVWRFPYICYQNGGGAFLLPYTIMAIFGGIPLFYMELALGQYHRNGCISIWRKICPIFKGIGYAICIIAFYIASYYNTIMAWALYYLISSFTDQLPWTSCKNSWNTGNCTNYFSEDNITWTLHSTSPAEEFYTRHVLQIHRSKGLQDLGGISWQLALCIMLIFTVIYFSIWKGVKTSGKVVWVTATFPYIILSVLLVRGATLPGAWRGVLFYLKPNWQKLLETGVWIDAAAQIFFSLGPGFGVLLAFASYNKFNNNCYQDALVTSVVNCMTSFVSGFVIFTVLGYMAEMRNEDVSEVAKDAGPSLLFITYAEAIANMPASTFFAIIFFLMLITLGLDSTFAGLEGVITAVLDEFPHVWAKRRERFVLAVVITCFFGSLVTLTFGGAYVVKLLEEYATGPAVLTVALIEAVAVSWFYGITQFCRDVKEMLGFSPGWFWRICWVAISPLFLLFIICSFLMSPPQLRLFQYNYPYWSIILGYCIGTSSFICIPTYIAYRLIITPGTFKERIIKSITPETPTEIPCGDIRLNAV

5-HT2B receptor = target: T7, 5-HT2B receptor (Homo sapiens, UniProt P41595); test: Eurofins Cerep competition binding assay at 5-HT2B receptor; details: test ligand 10 μM; [3H]mesulergine 2 nM; recombinant receptor, CHO membranes
T7 construct: host or cells: CHO
T7 sequence (P41595 whole entry): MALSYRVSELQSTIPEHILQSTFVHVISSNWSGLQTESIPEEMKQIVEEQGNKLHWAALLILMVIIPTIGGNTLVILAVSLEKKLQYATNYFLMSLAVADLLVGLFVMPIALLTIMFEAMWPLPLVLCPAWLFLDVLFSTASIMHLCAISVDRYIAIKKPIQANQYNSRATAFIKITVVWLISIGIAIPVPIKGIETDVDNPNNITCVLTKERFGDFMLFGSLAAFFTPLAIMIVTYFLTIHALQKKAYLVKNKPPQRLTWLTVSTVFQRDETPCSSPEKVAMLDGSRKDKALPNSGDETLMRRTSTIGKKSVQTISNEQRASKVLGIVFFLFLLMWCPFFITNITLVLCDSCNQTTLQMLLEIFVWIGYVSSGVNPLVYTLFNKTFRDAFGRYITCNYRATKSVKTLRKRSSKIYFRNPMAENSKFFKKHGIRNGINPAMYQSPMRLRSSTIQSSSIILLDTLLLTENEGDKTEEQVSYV

[2] = target: T8, norepinephrine transporter (NET) (Homo sapiens, UniProt P23975); test: Eurofins Cerep competition binding assay at norepinephrine transporter; details: test ligand 10 μM; [3H]nisoxetine 1 nM; recombinant transporter, CHO membranes
T8 construct: host or cells: CHO
T8 sequence (P23975 whole entry): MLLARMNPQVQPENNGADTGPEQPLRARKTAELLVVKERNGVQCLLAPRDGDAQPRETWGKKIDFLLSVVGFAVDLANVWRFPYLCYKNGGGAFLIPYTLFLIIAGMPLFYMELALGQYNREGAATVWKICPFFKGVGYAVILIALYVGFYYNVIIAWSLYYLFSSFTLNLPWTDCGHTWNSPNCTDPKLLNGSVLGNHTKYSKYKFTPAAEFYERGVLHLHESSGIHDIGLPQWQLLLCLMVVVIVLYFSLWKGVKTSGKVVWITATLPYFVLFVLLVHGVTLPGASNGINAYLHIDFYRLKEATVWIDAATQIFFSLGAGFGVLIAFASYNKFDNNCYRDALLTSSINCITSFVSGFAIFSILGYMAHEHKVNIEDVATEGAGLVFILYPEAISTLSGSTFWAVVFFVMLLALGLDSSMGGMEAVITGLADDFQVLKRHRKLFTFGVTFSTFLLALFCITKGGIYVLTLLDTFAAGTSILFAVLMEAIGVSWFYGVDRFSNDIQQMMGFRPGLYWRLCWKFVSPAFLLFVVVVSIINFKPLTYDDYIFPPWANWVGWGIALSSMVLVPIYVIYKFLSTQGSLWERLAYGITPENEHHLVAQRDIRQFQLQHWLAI

5-HT1A receptor [3] = target: T9, 5-HT1A receptor (Homo sapiens, UniProt P08908); test: 5-HT1A receptor radioligand competition assay (SPA, 8-hydroxy-DPAT); format: binding; details: for 5-HT1A receptor binding, in words (competition curves FIGS. 22B-22L): ligand 3 nM to 1 mM
T9 construct: purchased Perkin Elmer 6110501400UA
T9 sequence (P08908 1-422): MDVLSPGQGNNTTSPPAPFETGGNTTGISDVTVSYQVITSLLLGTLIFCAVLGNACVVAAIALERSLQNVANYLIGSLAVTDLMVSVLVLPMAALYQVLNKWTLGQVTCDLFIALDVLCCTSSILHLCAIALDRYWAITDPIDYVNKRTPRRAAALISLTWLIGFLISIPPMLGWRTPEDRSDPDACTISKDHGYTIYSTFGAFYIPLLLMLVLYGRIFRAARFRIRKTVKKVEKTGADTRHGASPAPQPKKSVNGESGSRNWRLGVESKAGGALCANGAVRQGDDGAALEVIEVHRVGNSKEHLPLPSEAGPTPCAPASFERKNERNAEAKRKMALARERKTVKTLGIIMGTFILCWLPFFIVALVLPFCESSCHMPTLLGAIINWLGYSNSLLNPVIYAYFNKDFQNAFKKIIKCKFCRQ

5-HT2A receptor [4] = target: T10, 5-HT2A receptor (Homo sapiens, UniProt P28223); format: binding; details: test ligand 10 μM; [125I](±)DOI 0.1 nM; recombinant receptor, HEK-293 membranes
T10 construct: host or cells: HEK-293
T10 sequence (P28223 whole entry): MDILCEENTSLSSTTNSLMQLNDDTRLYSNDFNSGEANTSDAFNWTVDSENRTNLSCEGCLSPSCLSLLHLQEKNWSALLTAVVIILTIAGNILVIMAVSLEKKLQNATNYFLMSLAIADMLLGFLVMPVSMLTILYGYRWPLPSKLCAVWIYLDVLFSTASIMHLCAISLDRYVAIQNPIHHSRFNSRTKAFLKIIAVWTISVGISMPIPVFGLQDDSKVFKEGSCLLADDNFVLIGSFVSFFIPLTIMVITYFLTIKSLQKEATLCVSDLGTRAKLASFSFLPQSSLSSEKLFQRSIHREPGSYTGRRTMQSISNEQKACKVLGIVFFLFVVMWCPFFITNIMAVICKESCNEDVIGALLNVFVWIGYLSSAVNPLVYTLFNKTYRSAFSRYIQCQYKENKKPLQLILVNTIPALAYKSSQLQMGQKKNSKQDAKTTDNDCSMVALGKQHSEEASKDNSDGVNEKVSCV

[5] = target: T11, dopamine transporter (DAT) (Homo sapiens, UniProt Q01959); test: Eurofins Cerep competition binding assay at dopamine transporter; details: test ligand 10 μM; [3H]BTCP 4 nM; recombinant transporter, CHO membranes
T11 construct: host or cells: CHO
T11 sequence (Q01959 whole entry): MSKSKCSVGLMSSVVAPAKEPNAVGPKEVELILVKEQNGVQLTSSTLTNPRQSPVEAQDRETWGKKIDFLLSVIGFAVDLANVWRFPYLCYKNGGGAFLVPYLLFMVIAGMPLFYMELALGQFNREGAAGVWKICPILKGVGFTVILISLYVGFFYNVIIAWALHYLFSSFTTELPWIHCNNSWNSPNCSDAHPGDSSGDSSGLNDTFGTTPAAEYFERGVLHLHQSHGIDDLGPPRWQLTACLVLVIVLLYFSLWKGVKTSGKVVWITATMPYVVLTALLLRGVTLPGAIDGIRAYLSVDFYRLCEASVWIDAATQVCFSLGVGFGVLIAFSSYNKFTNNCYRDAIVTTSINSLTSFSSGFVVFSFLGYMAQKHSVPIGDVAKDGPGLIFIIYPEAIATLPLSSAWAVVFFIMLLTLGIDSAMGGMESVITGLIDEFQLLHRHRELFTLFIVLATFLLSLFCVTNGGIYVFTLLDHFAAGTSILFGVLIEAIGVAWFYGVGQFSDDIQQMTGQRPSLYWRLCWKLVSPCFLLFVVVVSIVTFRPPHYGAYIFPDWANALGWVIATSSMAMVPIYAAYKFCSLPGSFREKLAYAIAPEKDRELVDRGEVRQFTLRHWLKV

5-HT2A receptor [6] = target: T10, 5-HT2A receptor; test: 5-HT2A receptor radioligand competition assay (SPA, [3H]ketanserin); format: binding; details: for Ki: SPA competition, 1 nM [3H]ketanserin, membranes containing 5-HT2A; for 5-HT2A receptor binding, in words (competition curves FIGS. 23B-23H): ligand 3 nM to 1 mM
5-HT1A receptor [7] = target: T9, 5-HT1A receptor; test: Eurofins Cerep competition binding assay at 5-HT1A receptor; details: test ligand 10 μM; [3H]8-OH-DPAT 0.5 nM; recombinant receptor, HEK-293 membranes

T1 sequence (P14416 1-414 isoform P14416-2): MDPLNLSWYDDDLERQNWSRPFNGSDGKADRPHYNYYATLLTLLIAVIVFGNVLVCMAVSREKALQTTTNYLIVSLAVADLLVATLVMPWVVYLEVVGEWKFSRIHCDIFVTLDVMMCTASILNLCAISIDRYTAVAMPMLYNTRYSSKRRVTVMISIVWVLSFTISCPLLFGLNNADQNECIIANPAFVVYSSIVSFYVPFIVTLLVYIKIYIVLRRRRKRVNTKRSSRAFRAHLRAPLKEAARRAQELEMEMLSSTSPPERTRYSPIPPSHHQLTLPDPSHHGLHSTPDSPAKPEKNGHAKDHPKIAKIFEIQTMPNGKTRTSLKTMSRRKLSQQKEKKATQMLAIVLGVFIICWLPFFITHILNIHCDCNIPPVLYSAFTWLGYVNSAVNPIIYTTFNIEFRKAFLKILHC

SMILES	D2, percent of control-specific binding (D2 receptor)	inhibition at 10 µM (alpha2A receptor)	MT1, percent of control-specific binding (MT1 receptor)	D3, percent of control-specific binding (D3 receptor)	HT2C, percent of control-specific binding (5-HT2C receptor)	SERT, percent of control-specific binding [1]	HT2B, percent of control-specific binding (5-HT2B receptor)	NET, percent of control-specific binding [2]	Ki (5-HT1A receptor [3])	5-HT1A receptor binding, in words (competition curves FIGS. 22B-22L) (5-HT1A receptor [3])	HT2A, percent of control-specific binding (5-HT2A receptor [4])	DAT, percent of control-specific binding [5]	Ki (5-HT2A receptor [6])	5-HT2A receptor binding, in words (competition curves FIGS. 23B-23H) (5-HT2A receptor [6])	HT1A, percent of control-specific binding (5-HT1A receptor [7])
CC(CN(C)Cc1ccccc1)c1ccc2c(c1)OCO2 (racemic) [Bx(V)]	12%	24%	9%	19%	42%	46%	41%	47%	45 µM	above levels observed for negative controls	13%	78%	63 µM	above levels observed for negative control	17%
CC(CN1CCCC1)c1ccc2c(c1)OCO2 (racemic) [Bx(II)]	6%	19%	0%	14%	52%	81%	38%	9%	14 µM		10%	79%			36%
c1cc2c(cc1CC1=NCCO1)OCO2 [C(III)]	0%	19%	12%	10%	12%	0%	19%	0%	31 µM		0%	19%			24%
CCOc1c(OC)cc(CCN)cc1OC [escaline]	5%									binding to 5-HT1A receptor					
CC(C(=O)N1CCCC1)c1ccc2c(c1)OCO2 (racemic) [Ax(II)]	0%	0%	5%	0%	0%	2%	5%	0%	108 µM		0%	5%	591 µM		3%
CCCOc1c(OC)cc(CCN)cc1OC [proscaline, reference compound]										binding to 5-HT1A receptor					
CN(C)CCc1c[nH]c2cccc(O)c12 [psilocin, reference compound]														binding at the 5-HT2A receptor	
CNC(C)Cc1ccc2c(c1)OCO2 (stereo not drawn) [MDMA, reference compound]	−10%														
CN(C)CCCN1c2ccccc2CCc2ccccc21 [Imipramine, imipramine, reference compound]						98%									
COc1cc(CC(C)N)c(OC)cc1Br (stereo not drawn) [DOB, reference compound]	9%														
COc1cc(CCN)c(OC)cc1Br [2C-B, reference compound]	42%														
CC(C(=O)N(C)Cc1ccccc1)c1ccc2c(c1)OCO2 (racemic) [Ax(V)]	0%	0%	55%	8%	16%	0%	30%	13%	186 µM		2%	71%	83 µM		2%
N[C@@H](Cc1c[nH]c2ccccc12)C(=O)O [tryptophan, reference compound]										no binding				lack of binding at the 5-HT2A receptor	
